Here are results for nine compounds from patent publication US20050267072A1, “Pharmaceutical compositions containing dually acting inhibitors of neutral endopeptidase for the treatment of sexual dysfunction” (Solvay Pharmaceuticals GmbH, priority 2004, published 2005).

pIC50: −log10 of the molar value. Where two headings read alike, the source gives them in different places. A value given as a limit tells only on which side of the number the result lay.

The subject of one assay is human corpus cavernosum. Nature of the assay: Big-ET-induced contraction of human cavernosal strips in vitro. It is filed as cell-based. As to conditions: compounds at 10 μM, 20 min incubation; big-ET-1 10^−8 M; mean of n corpus cavernosum samples. On the procedure:
2. Influence of Test Compounds on Big-ET-Induced Contraction of Human Cavernosal Strips In Vitro
Human erectile tissues were obtained from the corpus cavernosum of 9 patients undergoing surgery for implantation of penile prosthesis as treatment of erectile dysfunction or penile congenital curvature. After surgery, the tissue samples were transported and stored at 4° C. in RPMI-1640 medium containing HEPES (23.8 mM), penicillin (100 IU/ml) and streptomycin (0.1 mg/ml) until use (within 24 hours). Eight sections of 4×2×2 mm were excised from the corpus cavernosum of each donor for each experiment. Cavernosal strips were suspended in 5 ml organ chambers filled with Krebs-HEPES buffer. Organ chambers were maintained at 37° C. and continuously bubbled with 95% O2 and 5% CO2 to maintain a pH at 7.4. The cavernosal strips were connected to force transducers for isometric tension recording (Pioden controls Ltd, UK), and an initial tension of 1 g was applied. Following amplification, the tension changes were digitalized via a Mac Lab™/8 using Chart software (AD Instruments Ltd). The tissue preparation were allowed to equilibrate for 90 minutes, while being washed periodically (every 15 minutes) with fresh Krebs-HEPES buffer. When a stable resting tension was attained, the strips were set to at least 500 mg of basal tension. Following the equilibration period, the erectile tissues were primed with KCl 80 mM during 10 min. Once this priming period was achieved, the strips were washed by fresh Krebs-HEPES solution and allowed to re-equilibrate for 30 minutes at 500 mg of tension.
Once the strips were stabilized after the priming period, they were incubated with one of the following compounds (all at 10 μM, unless indicated otherwise) during 20 min: compound of Formula IV, compound of Formula V, SM-19712 (a selective and potent endothelin converting enzyme-1 inhibitor), DL-thiorphan (a selective and potent NEP inhibitor), and the combination of SM-19712, 10 μM and DL-thiorphan, and the common vehicle (phosphate buffer).
The strips were then exposed to the half-maximally effective concentration of big-ET-1 (10^−8 M) determined in the preliminary experiments until a stable response was obtained.
Contractile responses were expressed as absolute change in maximal developed tension (in mg). To reduce the potential heterogeneity of responses between strips, the contraction to big-ET-1 was normalized by the contractile responses to KCl 80 mM obtained during the priming period.
The results are from duplicate or triplicate determinations from a single corpus cavernosum sample were averaged and values are expressed as percentage of the contractile responses induced by 80 mM of KCl, as mean […]SEM, for n corpus cavernosum samples.

Assay [1] concerns the target T1, hSEP (His6-tagged hSEP ectodomain) (Homo sapiens, UniProt Q495T6).
T1 construct: His6-tagged hSEP ectodomain; His6; purchased Innogenetics, Ghent, Belgium
T1 sequence (Q495T6 49-779 limits assumed): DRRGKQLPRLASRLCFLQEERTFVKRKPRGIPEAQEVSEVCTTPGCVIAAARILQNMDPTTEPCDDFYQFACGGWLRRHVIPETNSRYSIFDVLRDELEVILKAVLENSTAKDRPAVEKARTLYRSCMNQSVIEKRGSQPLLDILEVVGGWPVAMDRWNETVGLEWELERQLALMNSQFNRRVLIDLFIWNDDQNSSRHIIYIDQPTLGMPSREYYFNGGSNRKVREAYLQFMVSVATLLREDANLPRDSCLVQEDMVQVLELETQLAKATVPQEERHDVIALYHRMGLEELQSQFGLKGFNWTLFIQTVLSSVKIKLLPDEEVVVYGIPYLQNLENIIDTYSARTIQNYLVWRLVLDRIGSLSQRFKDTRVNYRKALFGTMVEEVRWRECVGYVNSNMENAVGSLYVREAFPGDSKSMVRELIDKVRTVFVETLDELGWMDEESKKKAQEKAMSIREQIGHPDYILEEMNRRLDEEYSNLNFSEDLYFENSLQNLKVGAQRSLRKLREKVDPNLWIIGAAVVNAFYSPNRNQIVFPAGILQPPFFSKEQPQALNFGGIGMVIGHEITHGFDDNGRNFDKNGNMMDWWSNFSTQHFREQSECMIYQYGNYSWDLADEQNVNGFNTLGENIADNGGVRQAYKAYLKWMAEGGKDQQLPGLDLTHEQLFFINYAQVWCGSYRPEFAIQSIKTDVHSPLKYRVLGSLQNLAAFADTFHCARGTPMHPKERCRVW
Nature of the assay: Inhibition of enzymatic breakdown of CNP and VIP by hSEP (in vitro enzymatic assay, HPLC). In kind it is biochemical. The note with it: 15 min preincubation, 60 min at 37° C. On the procedure:
(§1) 1. Inhibition of Enzymatic Breakdown of CNP and VIP by the Test Compounds
(§2) The inhibition of the enzymatic breakdown of CNP and VIP by the test compounds of Formula I according to the invention was measured in an enzymatic in vitro assay according to the following protocol:
(§3) • a) hSEP (sol hu)(his)6; or: His6-tagged hSEP ectodomain. • stock solution: 53 μg/ml in 20 mM HEPES pH 7.2, 5% glycerol, 0.005% Tween20, 100 mM NaCl, purity>99% • working solution: stock solution diluted with assay buffer to 5 μg/ml • Supplier: Innogenetics, Ghent, Belgium. Preparation and purification of the protein were performed as described in WO 02/094176. • b) NEP (prepared from pig kidney cortex) • stock solution: 120 μg/ml in 20 mM bisTris, purity>95% • working solution: stock solution diluted with assay buffer to 5 μg/ml • Supplier: Dr. Philippe Crine, Univ. of Montreal, Canada Substrates: • a) VIP • b) CNP (32-53) • stock solution: 100 μM in assay buffer • Supplier: Bachem, Weil am Rhein, Germany
(§4) Assay buffer: 100 mM Tris pH 7.0, 250 mM NaCl
(§5) All test compounds were dissolved in DMSO at 10 mM and further diluted with assay buffer.
(§6) 70 μl of assay buffer, 10 μl of enzyme working solution (NEP or hSEP) and 10 μl of a test compound solution were mixed in an Eppendorf vial and preincubated at 37° C. for 15 minutes. Then, 10 μl of peptide stock solution (VIP or CNP) was added and the reaction mixture was incubated at 37° C. for 60 min. to allow enzymatic hydrolysis. The enzymatic reaction was subsequently terminated by heating to 95° C. for 5 min. After centrifugation (Heraeus Biofuge B, 3 min) the supernatant was subjected to HPLC.
(§7) For separating the remaining substrate from the cleavage products, a reversed phase HPLC technique with a CC 125/4 Nucleosil 300/5 C18 RP column and a CC 8/4 Nucleosil 100/5 C18 precolumn (Macherey-Nagel, Duren, Germany) was used. 60 μl of the reaction samples were injected into the HPLC and the column was eluted at a flow rate of 1 ml/min with the following gradient: […]
(§8) All peptides were detected by absorbance at 214 nm (UV spectroscopy).
(§9) Basis of the calculation of % inhibition is the peak area of the undegraded peptide (VIP or CNP) for an inhibitor containing sample X in comparison to samples containing only peptide (blank) or peptide and enzyme without inhibitor (control) according to the following equation: % inhib=100*(X−control)/(blank−control)
(§10) All samples were run in duplicate and mean values were used. A solvent control (0.1% DMSO) was added to each assay run.

Assay [2] addresses T2, NEP (prepared from pig kidney cortex) (Sus scrofa, UniProt A0A4X1SQE6). The assay can be described thus: Inhibition of enzymatic breakdown of CNP and VIP by NEP (in vitro enzymatic assay, HPLC). It is filed as biochemical. The note with it: 15 min preincubation, 60 min at 37° C. On the procedure:
as §1, §2, §3, §4, §5, §6, §7, §8, §9, §10

Assay [3] concerns the target T1, hSEP (His6-tagged hSEP ectodomain). The assay can be described thus: Activity assay: breakdown of VIP and CNP by hSEP. In kind it is biochemical. The note with it: 120 min at 37° C., no inhibitor. On the procedure:
as §3, §4
(§11) 80 μl of assay buffer, 10 μl of enzyme working solution (NEP or hSEP) and 10 μl of peptide stock solution (VIP or CNP) were mixed in an Eppendorf vial and incubated for 120 min. at 37° C. The enzymatic reaction was subsequently terminated by heating to 95° C. for 5 min. […]
as §8
(§12) The percentage (=%) of hydrolysis was calculated on the basis of the peak area of the undegraded peptide for an enzyme containing sample Y in correlation to a sample containing the same concentration of peptide without enzyme (blank) by the following equation: % hydrolysis=100*(blank−Y) […]

The target of assay [4] is T2, NEP (prepared from pig kidney cortex). Nature of the assay: Activity assay: breakdown of VIP and CNP by NEP. As to conditions: 120 min at 37° C., no inhibitor. In kind it is biochemical. On the procedure:
as §3, §4, §11, §8, §12

The next assay deals with patients with ED. The note with it: intracavernosal injection, combined with the α-adrenoceptor antagonist phentolamine; cited from earlier work.
[5] abbreviates: substrate CNP (32-53), read-out: inhibition of breakdown of CNP by hSEP IC50.
The mark [6] stands for this setting: substrate VIP, read-out: inhibition of breakdown of VIP by hSEP IC50.
[7] abbreviates: inhibition of breakdown of CNP by NEP IC50, substrate CNP (32-53).
[8] abbreviates: inhibition of breakdown of VIP by NEP IC50, substrate VIP.
[9] abbreviates: substrate CNP (32-53), read-out: inhibition of breakdown of CNP by NEP IC50.
[10] abbreviates: substrate VIP, read-out: inhibition of breakdown of VIP by NEP IC50.

T2 sequence (A0A4X1SQE6 entry or part of it): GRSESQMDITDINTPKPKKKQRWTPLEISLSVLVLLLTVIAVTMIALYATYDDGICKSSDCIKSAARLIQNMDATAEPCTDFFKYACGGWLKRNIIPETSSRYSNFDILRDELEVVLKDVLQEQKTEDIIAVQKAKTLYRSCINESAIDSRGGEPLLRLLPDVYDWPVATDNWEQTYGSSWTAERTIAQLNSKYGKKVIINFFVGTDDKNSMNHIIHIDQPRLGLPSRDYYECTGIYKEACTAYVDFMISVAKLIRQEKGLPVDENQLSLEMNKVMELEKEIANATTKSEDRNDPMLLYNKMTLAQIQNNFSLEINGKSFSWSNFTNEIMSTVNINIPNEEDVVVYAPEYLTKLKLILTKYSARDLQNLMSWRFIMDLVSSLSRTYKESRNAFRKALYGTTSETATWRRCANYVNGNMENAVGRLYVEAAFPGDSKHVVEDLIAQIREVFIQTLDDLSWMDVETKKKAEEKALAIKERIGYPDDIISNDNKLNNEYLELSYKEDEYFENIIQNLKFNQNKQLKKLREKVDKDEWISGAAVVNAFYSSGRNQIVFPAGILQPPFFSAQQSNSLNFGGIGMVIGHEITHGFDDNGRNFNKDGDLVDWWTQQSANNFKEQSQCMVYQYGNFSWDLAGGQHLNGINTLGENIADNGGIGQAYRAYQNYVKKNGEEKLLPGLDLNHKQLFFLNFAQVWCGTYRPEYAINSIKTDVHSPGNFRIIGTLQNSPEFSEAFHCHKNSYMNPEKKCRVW

For `O=C(O)CNC(=O)C(CS)Cc1ccccc1` (racemic) [thiorphan, reference compound], in the assay with human corpus cavernosum, the “Maximal big-ET-induced contraction” value was 91.57 percentage of the contractile responses induced by 80 mM of KCl. Moreover, the pIC50 is less than 6.00 in assay [1] (setting [5]), less than 6.00 in assay [1] (setting [6]), 8.08 in assay [2] (setting [7]) and 8.19 in assay [2] (setting [8]).
As for `O=C(O)CN1C(=O)C(NC(=O)C2(CC(CCc3ccccc3)C(=O)O)CCCC2)CCc2ccccc21` (stereo not shown) [Cpd. of Formula IV, 2-[1-(1-carboxymethyl-2-oxo-2,3,4,5-tetrahydro-1H-benzo[b]azepin-3-ylcarbamoyl)-cyclopentylmethyl]-4-phenyl-butyric acid], the “Maximal big-ET-induced contraction” value with human corpus cavernosum is 32.80 percentage of the contractile responses induced by 80 mM of KCl.
Same read-out and setting: the figure for `Cc1nn(-c2ccccc2)c(NC(=O)NS(=O)(=O)c2ccc(Cl)cc2)c1C#N` [SM-19712, reference compound] is 85.10 percentage of the contractile responses induced by 80 mM of KCl.
Regarding `CCOP(=O)(CC1(C(=O)N[C@H]2CCc3ccccc3N(CC(=O)OC(C)(C)C)C2=O)CCCC1)OCc1ccccc1` (stereo partly drawn) [compound 2, (3S)-(3-{[1-(Benzyloxy-ethoxy-phosphorylmethyl)-cyclopentanecarbonyl]-amino}-2-oxo-2,3,4,5-tetrahydro-benzo[b]azepin-1-yl)-acetic acid tert-butyl ester], the pIC50 in assay [1] (setting [5]) was 8.55; in assay [1] (setting [6]) it was 8.40; in assay [2] (setting [7]), 8.64; in assay [2] (setting [8]), 8.80.
On to `CCOC(=O)C(CCc1ccccc1)CC1(C(=O)NC2CCc3ccccc3N(CC(=O)O)C2=O)CCCC1` (stereo not shown) [compound of Formula II, 2-[1-(1-carboxymethyl-2-oxo-2,3,4,5-tetrahydro-1H-benzo[b]azepin-3-ylcarbamoyl)-cyclopentylmethyl]-4-phenyl-butyric acid ethyl ester], for which the pIC50 was 9.15 in assay [1] (setting [5]), 8.46 in assay [1] (setting [6]), 8.12 in assay [2] (setting [9]) and 8.48 in assay [2] (setting [10]).
The like results for `CCOC(=O)[C@H](CCc1cccc2ccccc12)CC1(C(=O)N[C@H]2CCc3ccccc3N(CC(=O)O)C2=O)CCCC1` [compound of Formula III, {(3S)-3-[({1-[(2R)-2-(ethoxycarbonyl)-4-(1-naphthyl)butyl]cyclopentyl}carbonyl)amino]-2-oxo-2,3,4,5-tetrahydro-1H-1-benzazepin-1-yl}acetic acid] were, in that order, 8.66, 8.54, 8.18 and 8.38.
Take `O=C(O)CN1C(=O)C(NC(=O)C2(CC(CCc3cccc4ccccc34)C(=O)O)CCCC2)CCc2ccccc21` (stereo not shown) [cpd. of Formula V, 2-[1-(1-carboxymethyl-2-oxo-2,3,4,5-tetrahydro-1H-benzo[b]azepin-3-ylcarbamoyl)-cyclopentylmethyl]-4-naphthalen-1-yl-butyric acid]: the “Maximal big-ET-induced contraction” value in the assay with human corpus cavernosum was 49.60 percentage of the contractile responses induced by 80 mM of KCl.
“CNP: C-type natriuretic peptide, substrate CNP (32-53), supplier Bachem”: the “degradation at t = 2 h by hSEP” value in assay [3] is 46%. In assay [4], the “degradation at t = 2 h by NEP” value is given as 39%.
In the case of “VIP: vasoactive intestinal peptide, substrate, supplier Bachem”, the “response rate (erections sufficient for sexual intercourse)” value in the assay on patients with ED was 67%. Moreover, the “degradation at t = 2 h by hSEP” value in assay [3] worked out at 36%. Also, the “degradation at t = 2 h by NEP” value in assay [4] came out at 28%.

Broadly, the pIC50 is the IC50 on a negative log10 scale, so that one unit is a factor of ten.
